Test results from patent publication US20250290117A1, “MOLECULAR PHENOTYPIC ANTIMICROBIAL SUSCEPTIBILITY TESTING” (priority 2024, published 2025).

Key:
[1] = system: Acinetobacter baumannii; test: Traditional culture-based antimicrobial susceptibility test; assay type: cell-based
From the text: Table 2 illustrates the results of an example antimicrobial agent susceptibility test of the current application versus a traditional culture-based antimicrobial agent susceptibility test for […], in accordance with one or more embodiments of the disclosure. This specimen underwent extraction and/or DNA purification prior to PCR. As in Table 1, the results of the test of the current application are similar to the results from the traditional test.
Result Reporting to Healthcare Providers. The results from the antimicrobial exposure are reported to the ordering healthcare provider. This information can be utilized by the healthcare provider when selecting an antimicrobial regimen for their individual patient based on these individual specimen results and patient specific factors. […] The current standard of care for antimicrobial susceptibility testing involves the growth, isolation, and exposure of pathogens to antimicrobials. This traditional culture and sensitivity process can take multiple days to obtain results, limiting the ability of healthcare providers to receive timely results to make actionable changes in patient care or management. Healthcare providers desire a method to obtain antimicrobial susceptibility results with quicker turn-around-time. This application discloses a molecular-based phenotypic antimicrobial susceptibility method which involves pathogen exposure to a panel of antimicrobial agents at their specified minimum inhibitory concentration breakpoints for sensitivity. This method allows for more timely antimicrobial susceptibility results.

[2] = system: M. morganii; test: Molecular phenotypic antimicrobial susceptibility test, specimen with two detected pathogens incubated together without isolation; assay type: cell-based, Morganella morganii; conditions: M. morganii in specimen with two detected pathogens (E. coli and M. morganii) incubated together; for Ct of Sensitive Breakpoint: Ct of controls (average) 19.99; for Molecular Antimicrobial Susceptibility Result: at sensitive breakpoint
Experimental: (§1) Detection of Molecular Phenotypic Antimicrobial Susceptibility. Disclosed herein are the methods for the detection of phenotypic antimicrobial susceptibility via molecular methods. The present invention describes how a specimen 100 with a known microbial load is incubated and then exposed to a panel of antimicrobial agents to determine sensitivity (prevention of growth) or resistance (allowance of growth) to the specific antimicrobial agents tested utilizing molecular methods.
(§2) Sample Collection. Specimens 100 are collected from patients using sterile collection processes that are employed in routine clinical care. Specimens are transported to the testing facility in boric acid preservative. Specimens 100 are subsequently divided into a first sample 104 and a second sample 108.
(§3) Preparation of the Specimens for Testing. The specimens 100 are put through a pathogen identification process using PCR technology (e.g., using the first sample 104). The process for pathogen isolation includes steps of harvesting the pathogen (e.g., via centrifugation), isolating pathogen DNA via a DNA isolation and/or purification kit, and performing PCR on the pathogen DNA via PCR components (e.g., primers, enzymes, buffers) as would be known to the skilled artisan. Simultaneously, an additional aliquot of the same specimen (e.g., the second sample 108) is placed with liquid culture media and incubated for 4-6 hours. This aliquot is used for antimicrobial susceptibility testing if indicated based on the pathogen detection results. After pathogen identification is completed and if more than 10,000 cells/mL of bacteria (e.g., eligible bacteria) are detected in the source specimen, the second sample 108 then enters the antimicrobial susceptibility phase of testing. Specimens 100 with lower pathogen loads could also be utilized in the antibiotic susceptibility phase of testing with or without a longer incubation period.
(§4) Preparation of Antimicrobial Susceptibility Testing Plates. Antimicrobial solutions are prepared at known concentrations. The specific antimicrobials and their concentrations are selected based on the pathogen of interest and the described antimicrobial resistance breakpoints for that specimen pathogen and antimicrobial combination. These antimicrobials have been selected based on those commonly utilized by healthcare providers in routine clinical care for the specific type of suspected infection. The number and types of antimicrobials utilized can be customized based on the infection source, pathogen detected, patient-specific factors such as allergies or other health conditions (e.g., chronic kidney disease or concurrent medication use), or healthcare provider preferences such as antimicrobial availability or cost.
(§5) The antimicrobial solutions are prepared in liquid culture media (such as Muller Hinton Broth) to achieve the desired antimicrobial concentration and are then stored at −80° C. until use. For a given specimen, each antimicrobial is tested at a single or multiple antimicrobial concentration(s) which is its established breakpoints for sensitivity. The antimicrobial solutions are prepared and plated out for each specific pathogen. This allows ease of use on the day of testing after defrosting the plate 112. Table 1, which illustrates the results of molecular phenotypic antimicrobial susceptibility testing when more than one organism is present in the source specimen, provides an example of an antimicrobial plate 112 prepared for this purpose. Of note, control wells containing only culture media are present on all plates 112. This allows for evaluation of pathogen load when no antimicrobial is present.
(§6) Specimen Exposure to Antimicrobial Agents. The 1 mL aliquot of the specimen 100 previously mixed with culture media and incubated is obtained. Using optical density measurements as a guide, the specimen 100 is diluted to 0.5 McFarland. […]

[3] = system: E. coli; test: Molecular phenotypic antimicrobial susceptibility test with direct PCR (no extraction DNA purification step); assay type: cell-based, Escherichia coli
Experimental: as §1, §2, §3, §4, §5, §6

[4] = E. coli isolate JJ1887, direct PCR, Ct at control (average) 12.832
[5] = E. coli isolate JJ1887, direct PCR, at sensitive breakpoint
[6] = E. coli #1 - WDCM 00090 - 6.2×E3, specimen with <10,000 cells/mL, direct PCR after 16 hours of incubation
[7] = E. coli #1 - WDCM 00090 - 6.2×E3, specimen with <10,000 cells/mL, direct PCR after 16 hours of incubation, Ct at control 13.787
[8] = E. coli #2 - WDCM 00090 - 6.2×E3, specimen with <10,000 cells/mL, direct PCR after 16 hours of incubation
[9] = E. coli #2 - WDCM 00090 - 6.2×E3, specimen with <10,000 cells/mL, direct PCR after 16 hours of incubation, Ct at control 13.46

| Molecule | Traditional Culture Result ([1]; A. baumannii isolate 1) | Traditional Culture Result ([1]; A. baumannii isolate 2) | Traditional Culture Result ([1]; A. baumannii isolate 3) | Traditional Culture Result ([1]; A. baumannii isolate 4) | Traditional Culture Result ([1]; A. baumannii isolate 5) | Ct of Sensitive Breakpoint [2] | Molecular Antimicrobial Susceptibility Result [2] | Ct at Sensitive Breakpoint [3, 4] | Molecular Antimicrobial Susceptibility Result [3, 5] | Molecular Antimicrobial Susceptibility Result [3, 6] | Ct at Sensitive Breakpoint [3, 7] | Molecular Antimicrobial Susceptibility Result [3, 8] | Ct at Sensitive Breakpoint [3, 9] |
| --- | --- | --- | --- | --- | --- | --- | --- | --- | --- | --- | --- | --- | --- |
| C[C@@H](O)[C@H]1C(=O)N2C(C(=O)O)=C(S[C@@H]3CN[C@H](C(=O)N(C)C)C3)[C@H](C)[C@H]12 [Meropenem] | Resistant | Resistant | Resistant | Resistant | Resistant | 29.99 | Sensitive (Antimicrobial wells with pathogen load detected below the control wells (typically >2 cycle thresholds later) may be reported as Sensitive) | 25.055 | Sensitive (Antimicrobial wells with pathogen load detected below the control wells (typically >2 cycle thresholds later) may be reported as Sensitive) | – | – | – | – |
| Ampicillin/Sulbactam | – | – | – | Sensitive | Sensitive | 22.00 | Sensitive (Antimicrobial wells with pathogen load detected below the control wells (typically >2 cycle thresholds later) may be reported as Sensitive) | 12.693 | Resistant | – | – | – | – |
| Gentamicin | – | – | – | Sensitive | Sensitive | 30.09 | Sensitive (Antimicrobial wells with pathogen load detected below the control wells (typically >2 cycle thresholds later) may be reported as Sensitive) | 12.308 | Resistant | Sensitive (Antimicrobial wells with pathogen load detected below the control wells (typically >2 cycle thresholds later) may be reported as Sensitive) | 28.57 | Sensitive (Antimicrobial wells with pathogen load detected below the control wells (typically >2 cycle thresholds later) may be reported as Sensitive) | 28.70 |
| Piperacillin/Tazobactam | Resistant | Resistant | Resistant | Resistant | Resistant | 29.64 | Sensitive (Antimicrobial wells with pathogen load detected below the control wells (typically >2 cycle thresholds later) may be reported as Sensitive) | 23.923 | Sensitive (Antimicrobial wells with pathogen load detected below the control wells (typically >2 cycle thresholds later) may be reported as Sensitive) | Sensitive (Antimicrobial wells with pathogen load detected below the control wells (typically >2 cycle thresholds later) may be reported as Sensitive) | 26.78 | Sensitive (Antimicrobial wells with pathogen load detected below the control wells (typically >2 cycle thresholds later) may be reported as Sensitive) | 27.46 |
| Trimethoprim/Sulfamethoxazole [TMP/SMX] | Sensitive | Sensitive | Sensitive | Sensitive | Sensitive | 32.93 | Sensitive (Antimicrobial wells with pathogen load detected below the control wells (typically >2 cycle thresholds later) may be reported as Sensitive) | 13.414 | Resistant | – | – | – | – |
